Test results taken from ChEMBL document CHEMBL1158071, “Pterulamides I-VI, linear peptides from a Malaysian Pterula sp” (J Nat Prod, 2006).
Non-standard residues stand in square brackets, D forms with d. Residues, ends and D or L forms follow the SMILES beside them. *: point of attachment. NMeI = CC[C@H](C)[C@H](NC)C(=O)O; NMeV = CN[C@H](C(=O)O)C(C)C; X2 = C[S+]([O-])/C=C/C(=O)*; NMeA = CN[C@@H](C)C(=O)O; X1 = O=C(/C=C/c1ccccc1)*

Tested on: P388
Assay: Cytotoxicity against mouse P388 cells
Assay type: functional, cell-based

| Compound | IC50 |
| --- | --- |
| CC[C@H](C)[C@@H](C(=O)NC)N(C)C(=O)[C@@H](NC(=O)[C@H](C(C)C)N(C)C(=O)[C@H]([C@@H](C)CC)N(C)C(=O)[C@H](C)N(C)C(=O)/C=C/c1ccccc1)C(C)C [PTERULAMIDE IV] (X1-[NMeA][NMeI][NMeV]V[NMeI]-NHMe) | 1.33 µM |
| CC[C@H](C)[C@@H](C(=O)NC)N(C)C(=O)[C@@H](NC(=O)[C@H](C(C)C)N(C)C(=O)[C@H]([C@@H](C)CC)N(C)C(=O)[C@H](C)N(C)C(=O)/C=C/[S+](C)[O-])C(C)C (some centres not stated) [PTERULAMIDE I] (X2-[NMeA][NMeI][NMeV]V[NMeI]-NHMe) | 0.79 µM |
